Measurements published in US20250084097A1, “MACROCYCLIC AMIDE COMPOUNDS AND APPLICATION THEREOF” (Medshine Discovery Inc., priority 2021, published 2025).

Assays:
[1] = tested on: Ba/F3-FL-EGFR (del19-T790M-C797S) cells; experiment: In vivo efficacy, Ba/F3-FL-EGFR-Del19-T790M-C797S cell homograft tumor model; set-up: species or system mouse; conditions: for Relative tumor proliferation rate T/C / Tumor growth inhibition rate TGI: Day 10
Method: Ba/F3-FL-EGFR (del19-T790M-C797S) cell line was cultured in RPMI1640 medium (Viva Cell)+10% fetal bovine serum (Viva Cell)+1% double-antibody (Penicillin Streptomycin solution, Gibco, USA) at 37° C., 5% CO2, and passaged 2-3 times a week. When the cell saturation was 80%-90%, cells were collected, counted and inoculated. When the cells in the logarithmic growth phase reached the required number for the assay, the cells were collected, and centrifuged at 1000 rpm for 5 min to remove the supernatant. The cells were resuspended with medium, and counted using a cell counter. According to the counting results, the original solution was diluted into a cell suspension with a concentration of 1*10^7 viable cells/mL, and the cell viability was 98.77%, P17 generation. The diluted cell suspension and matrix gel were diluted in a 1:1 ratio. After mixing well and placing on ice, the suspension was aspirated with a 1 mL sterile insulin syringe, and each mouse was subcutaneously inoculated with 0.2 mL of cell suspension in the right axilla. That is, each mouse was inoculated with 1*10^6 Ba/F3-FL-EGFR (del19-T790M-C797S) cells.
After the inoculation was completed, the tumor growth status was observed daily. When the average tumor volume reached approximately 100˜150 mm^3, the mice were randomly divided into groups according to tumor volume.
Dosage according to mouse body weight: 10 μL/g. If the body weight decreases by more than 20%, the dosing regimen was adjusted accordingly.
The formulation and any modifications of this assay protocol were evaluated and approved by the Laboratory Animal Welfare Ethics Committee of the testing institution. The health status and death of animals were checked every day. Routine inspections included tumor growth, activity, diet, body weight, eyes, hair and other abnormal behaviors of animals. Tumor volume and body weight were measured three times a week (Monday, Wednesday and Friday). The tumor volume was measured with a vernier caliper, and the formula was TV=0.5 a×b^2, where a is the long diameter of a tumor and b is the short diameter of a tumor.
Statistical analysis included the mean (Mean) and standard error (SEM) of tumor volume at each time point for each group. Statistical analysis was performed to evaluate differences between groups based on the data on the 10th day after administration. One way ANOVA post hoc test and Tamhane test were used to compare whether there was a significant difference in tumor volume between the treatment group and the control group. p<0.05 meaned a significant difference. Drug efficacy evaluation indicators included tumor volume and tumor weight to examine whether tumor growth was delayed, inhibited or cured. The anti-tumor efficacy of compounds was evaluated using the relative tumor proliferation rate T/C (%) or the tumor growth inhibition rate TGI (%). […] In principle, the evaluation criteria were: T/C (%) >40% or TGI (%) <40% represents ineffective; T/C (%)≤40% and p<0.05, or TGI (%)≥40% and p<0.05 represents effective.

[2] = target: T1, CYP3A4 (Homo sapiens, UniProt P08684); experiment: Cytochrome P450 isoenzyme inhibition, human liver microsomes; format: in vitro ADME; conditions: read-out: Cytochrome P450 isoenzyme inhibitory concentration CYP3A4
T1 construct: from tissue; host or cells: human liver microsomes
Method: (§1) The purpose of this study was to determine the inhibitory effect of test compounds on the activity of human liver microsomal cytochrome P450 isoenzymes (CYP1A2, CYP2C9, CYP2C19, CYP2D6 and CYP3A4).
(§2) Working solutions (100×final concentration) with concentrations of 5.00, 1.50, 0.500, 0.150, 0.0500, 0.0150, and 0.00500 mM were prepared by gradient dilution of the test compound (10.0 mM), while working solutions of each positive inhibitor and its specific substrate mixtures of P450 isozymes (CYP1A2, CYP2C9, CYP2C19, CYP2D6, and CYP3A4) were prepared; human liver microsomes stored in a refrigerator below −60° C. were thawed on ice; after all the human liver microsomes were thawed, the human liver microsomes were diluted with Potassium phosphate buffer (PB) to prepare a certain concentration of working solution (0.253 mg/ml).
(§3) First, 20.0 μL of the substrate mixture was added to a reaction plate (20.0 μL of PB was added to the Blank well), then 158 μL of human liver microsomal working solution was added to the reaction plate, and the reaction plate was placed on ice for use; at this time, 2.00 μL of each concentration of the test compound (N=1) and specific inhibitor (N=2) were added to the corresponding wells, and to the group without inhibitor (test compound or positive inhibitor) was added the corresponding organic solvent as control samples (1:1 DMSO:MeOH for the control sample of the test compound, and 1:9 DMSO:MeOH for all the positive control samples); after pre-incubation in a water bath at 37° C. for 10 min, 20.0 μL of cofactor (NADPH) solution was added to the reaction plate, and the reaction plate was incubated in a water bath at 37° C. for 10 min; The reaction was terminated by adding 400 μL of pre-cooled acetonitrile solution (containing 200 ng/mL Tolbutamide and Labetalol internal standard); the reaction plate was shaken on a shaker for 10 min; then centrifuged at 4000 rpm at 4° C. for 20 min; 200 μL of the supernatant was added to 100 μL of water to dilute the samples; and the plate was sealed, shaken for 10 min to mix well, and then analyzed by LC/MS/MS.
(§4) The rate of production of metabolites of each probe substrate was used to reflect the activity of each CYP isozyme. The activity of each isozyme in the solvent control incubation system without test article or positive inhibitor was set to be 100%, and the rate of production of metabolites of the probe substrate with different concentrations of test article or positive inhibitor was divided by the rate of production of metabolites of the solvent control samples, and then multiplied by 100% as the percentage of residual activity of each isozyme. The IC50 values of the test article and each positive inhibitor were calculated by nonlinear regression analysis using three or four parameters in XL fit software with the percentage of residual activity as the vertical coordinate and the inhibitor concentration as the horizontal coordinate. The IC50 values were labeled as “>50 μM” when the IC50 fitted by XL fit software was greater than the highest administered concentration (50 μM) or when the IC50 could not be fitted.

[3] = target: T2, CYP2C9 (Homo sapiens, UniProt P11712); experiment: as above; format: in vitro ADME; conditions: read-out: Cytochrome P450 isoenzyme inhibitory concentration CYP2C9
T2 construct: from tissue; host or cells: human liver microsomes
Method: as §1, §2, §3, §4

[4] = 10 mg/kg/bid, day 0 after administration
[5] = 10 mg/kg/bid, day 3 after administration
[6] = 10 mg/kg/bid, day 5 after administration
[7] = 10 mg/kg/bid, day 7 after administration
[8] = 10 mg/kg/bid, day 10 after administration
[9] = 25 mg/kg/bid, day 0 after administration
[10] = 25 mg/kg/bid, day 3 after administration
[11] = 25 mg/kg/bid, day 5 after administration
[12] = 25 mg/kg/bid, day 7 after administration
[13] = 25 mg/kg/bid, day 10 after administration

T2 sequence (P11712 whole entry): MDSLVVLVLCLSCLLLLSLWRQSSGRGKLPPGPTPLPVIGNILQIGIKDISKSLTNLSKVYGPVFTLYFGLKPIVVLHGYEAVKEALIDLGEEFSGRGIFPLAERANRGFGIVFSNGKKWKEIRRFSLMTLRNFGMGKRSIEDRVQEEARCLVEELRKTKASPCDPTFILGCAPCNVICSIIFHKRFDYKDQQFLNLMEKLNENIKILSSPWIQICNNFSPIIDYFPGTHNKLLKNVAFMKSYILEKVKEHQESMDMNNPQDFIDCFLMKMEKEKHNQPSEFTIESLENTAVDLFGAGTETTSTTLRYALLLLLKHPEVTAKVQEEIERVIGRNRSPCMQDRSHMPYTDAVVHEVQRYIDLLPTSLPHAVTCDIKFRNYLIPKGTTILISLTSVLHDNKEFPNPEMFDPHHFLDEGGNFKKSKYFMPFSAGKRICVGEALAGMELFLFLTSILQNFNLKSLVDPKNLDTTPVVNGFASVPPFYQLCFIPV
T1 sequence (P08684 whole entry): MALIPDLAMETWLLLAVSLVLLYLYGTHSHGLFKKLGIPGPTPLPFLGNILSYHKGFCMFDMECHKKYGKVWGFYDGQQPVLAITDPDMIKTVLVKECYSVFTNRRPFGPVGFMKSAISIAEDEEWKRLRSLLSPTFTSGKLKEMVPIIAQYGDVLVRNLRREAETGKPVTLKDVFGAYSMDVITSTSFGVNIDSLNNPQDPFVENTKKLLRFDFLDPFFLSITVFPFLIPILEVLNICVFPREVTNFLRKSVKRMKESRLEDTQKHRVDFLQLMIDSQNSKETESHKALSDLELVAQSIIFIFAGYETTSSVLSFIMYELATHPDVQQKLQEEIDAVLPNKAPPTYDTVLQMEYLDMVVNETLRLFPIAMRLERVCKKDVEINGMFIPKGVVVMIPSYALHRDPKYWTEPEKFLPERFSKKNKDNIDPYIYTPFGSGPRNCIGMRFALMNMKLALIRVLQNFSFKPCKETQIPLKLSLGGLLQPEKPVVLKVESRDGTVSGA

Row | Compound | Relative tumor proliferation rate T/C ([1]; 10 mg/kg/bid) [%] | Tumor growth inhibition rate TGI ([1]; 10 mg/kg/bid) [%] | Average tumor volume [1, 4] [mm^3] | Average tumor volume [1, 5] [mm^3] | Average tumor volume [1, 6] [mm^3] | Average tumor volume [1, 7] [mm^3] | Average tumor volume [1, 8] [mm^3] | Relative tumor proliferation rate T/C ([1]; 25 mg/kg/bid) [%] | Tumor growth inhibition rate TGI ([1]; 25 mg/kg/bid) [%] | Average tumor volume [1, 9] [mm^3] | Average tumor volume [1, 10] [mm^3] | Average tumor volume [1, 11] [mm^3] | Average tumor volume [1, 12] [mm^3] | Average tumor volume [1, 13] [mm^3] | IC50 [2] [µM] | IC50 [3] [µM]
1 | Cc1cc2cc(n1)-c1cnn(C)c1OC[C@H]1CC[C@H](C1)CN1/C(=N/C2=O)Nc2ccc(N=S(C)(C)=O)cc21 (single isomer, unassigned) [WX-027A] | 14 | 94 | 113 | 123 | 111 | 183 | 179 | 7 | 102 | 112 | 105 | 96 | 108 | 86 | 20 | 14
2 | Cc1cc2cc(n1)-c1cnn(C)c1OCCC[C@@H](C)CN1/C(=N/C2=O)Nc2ccc(N=S(C)(C)=O)c(Cl)c21 [WX-019] | 8 | 101 | 113 | 133 | 140 | 148 | 106 | 7 | 103 | 113 | 120 | 94 | 130 | 82 | > 50 | 31
